According to patent US9452980B2, “Substituted benzamides” (Hoffmann-La Roche Inc., priority 2009, dated 2016):
Counter-ions that a name gives are not always drawn. Like-named read-outs stand apart in the source and are kept apart here.

Assays:
mouse TAAR1 = mouse TAAR1 (Mus musculus (Mouse), UniProt Q923Y8); assay: Radioligand binding assay on mouse TAAR1; details: read-out: Ki (μM) mouse
How it was run: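 Membranes were from HEK293 cells stably expressing mouse TAAR1. Compounds from 10 pM to 10 μM, in duplicate, competed with [3H]-(S)-4-[(ethyl-phenyl-amino)-methyl]-4,5-dihydro-oxazol-2-ylamine for 1 h at 4 °C. Nonspecific binding was defined with 10 μM unlabelled ligand, and bound radioactivity was read by filtration and scintillation.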

rat TAAR1 = rat TAAR1 (Rattus norvegicus (Rat), UniProt Q923Y9); assay: Radioligand binding assay on rat TAAR1; details: read-out: Ki (μM) rat
How it was run: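 Membranes from HEK293 cells stably expressing rat TAAR1, with Kd checked per batch by saturation. Competition with ³H-(S)-4-[(ethyl-phenyl-amino)-methyl]-4,5-dihydro-oxazol-2-ylamine, compounds 10 pM–10 μM in duplicate, 1 hr at 4 °C. Filtration then scintillation counting; nonspecific binding defined with 10 μM unlabeled ligand.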

[1] = rat TAAR1, HEK-293 membranes, second value of cell mouse/rat
[2] = mouse TAAR1, HEK-293 membranes, first value of cell mouse/rat

Sequence of mouse TAAR1 (Q923Y8 whole entry): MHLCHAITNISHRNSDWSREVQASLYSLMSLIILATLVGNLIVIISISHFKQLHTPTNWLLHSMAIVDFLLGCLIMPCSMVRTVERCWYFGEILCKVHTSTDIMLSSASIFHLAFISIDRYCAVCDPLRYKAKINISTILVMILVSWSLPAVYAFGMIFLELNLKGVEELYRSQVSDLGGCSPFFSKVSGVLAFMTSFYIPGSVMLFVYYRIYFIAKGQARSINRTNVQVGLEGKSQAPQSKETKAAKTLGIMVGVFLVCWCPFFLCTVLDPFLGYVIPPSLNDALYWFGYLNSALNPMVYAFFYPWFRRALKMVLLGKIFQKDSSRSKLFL
Sequence of rat TAAR1 (Q923Y9 whole entry): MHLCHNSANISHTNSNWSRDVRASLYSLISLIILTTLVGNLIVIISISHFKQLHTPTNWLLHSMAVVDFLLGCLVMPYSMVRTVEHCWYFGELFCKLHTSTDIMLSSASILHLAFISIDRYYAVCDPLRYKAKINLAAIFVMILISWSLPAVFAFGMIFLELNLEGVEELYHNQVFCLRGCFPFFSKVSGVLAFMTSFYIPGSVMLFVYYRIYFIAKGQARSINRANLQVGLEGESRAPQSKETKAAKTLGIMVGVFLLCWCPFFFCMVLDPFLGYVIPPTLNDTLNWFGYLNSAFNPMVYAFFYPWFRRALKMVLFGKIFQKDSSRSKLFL

Compound	Ki (rat TAAR1; [1]) [µM]	Ki (mouse TAAR1; [2]) [µM]	Ki (mouse TAAR1) [µM]	Ki (rat TAAR1) [µM]
O=C(Nc1ccc([C@@H]2CCCNC2)cc1)c1cnc(C(F)(F)F)cn1 [Example 248, (S)—N-(4-(Piperidin-3-yl)phenyl)-5-(trifluoromethyl)pyrazine-2-carboxamide hydrochloride]	0.0143	–	0.188	–
O=C(Nc1ccc(CCC2CCNC2)cc1)c1ncccc1F (racemic) [Example 132, (RS)-3-Fluoro-pyridine-2-carboxylic acid [4-(2-pyrrolidin-3-yl-ethyl)-phenyl]-amide hydrochloride]	0.141	9.99	–	–
CSc1cccc(C(=O)Nc2ccc([C@@H]3CCCNC3)cc2)c1 [Example 259, (S)-3-(Methylthio)-N-(4-(piperidin-3-yl)phenyl)benzamide]	–	0.044	–	0.0009
O=C(COc1ccc(Cl)cc1)Nc1ccc([C@@H]2CCCNC2)cc1 [Example 235, (S)-2-(4-Chlorophenoxy)-N-(4-(piperidin-3-yl)phenyl)acetamide hydrochloride]	0.0006	–	0.0334	–
CC(C(=O)Nc1ccc(C2CCCNC2)cc1)c1cccc(OC(F)(F)F)c1 (racemic) [Example 105, (RS)—N—((RS)-4-Piperidin-3-yl-phenyl)-2-(3-trifluoromethoxy-phenyl)-propionamide]	0.0135	0.0296	–	–
O=C(Nc1ccc([C@@H]2CCCNC2)cc1)c1cccc(C(F)(F)F)c1 [Example 234, (S)—N-(4-(Piperidin-3-yl)phenyl)-3-(trifluoromethyl)benzamide hydrochloride]	–	–	0.0217	0.001
O=C(Nc1ccc([C@@H]2CCCNC2)cc1)c1ccc(Cl)nc1 [Example 162, (S)-6-Chloro-N-(4-(piperidin-3-yl)phenyl)nicotinamide hydrochloride]	0.0092	–	0.231	–
COc1ccc(C(=O)Nc2ccc([C@H]3CCCNC3)cc2)cc1Cl [Example 202, (R)-3-Chloro-4-methoxy-N-(4-(piperidin-3-yl)phenyl)benzamide hydrochloride]	–	–	0.0087	0.0015
O=C(Nc1ccc(C2CCNC2)cc1)c1ccc(Cl)cc1Cl (racemic) [Example 19, (RS)-2,4-Dichloro-N-(4-pyrrolidin-3-yl-phenyl)-benzamide hydrochloride]	0.0189	0.0035	–	–
O=C(Nc1ccc(C2CNCCO2)cc1)c1cnc(-c2ccccc2)s1 (racemic) [Example 231, (RS)—N-(4-(Morpholin-2-yl)phenyl)-2-phenylthiazole-5-carboxamide hydrochloride]	0.0014	–	0.0043	–
C[C@H]1CNC[C@H](c2ccc(NC(=O)c3cccc(Cl)c3)cc2)O1 [Example 309, 3-Chloro-N-(4-((2S,6S)-6-methylmorpholin-2-yl)phenyl)benzamide hydrochloride]	0.0023	–	0.116	–
O=C(Nc1ccc(C2CCCNC2)cc1)c1cccc(Cl)c1 (racemic) [Example 92, (RS)-3-Chloro-N-(4-piperidin-3-yl-phenyl)-benzamide hydrochloride]	0.0238	0.0238	–	–
O=C(Nc1ccc(CCC2CCCNC2)cc1)Nc1ccc(Cl)cn1 (racemic) [Example 115, (RS)-1-(5-Chloro-pyridin-2-yl)-3-[4-(2-piperidin-3-yl-ethyl)-phenyl]-urea hydrochloride]	0.0118	0.32	–	–
O=C(Nc1ccc(CCC2CCCN2)cc1)c1ccc(Cl)c(Cl)c1 (racemic) [Example 154, (RS)-3,4-Dichloro-N-[4-(2-pyrrolidin-2-yl-ethyl)-phenyl]-benzamide hydrochloride]	0.0002	0.0082	–	–
O=C(Nc1ccc([C@@H]2CNCCO2)cc1)Nc1ccc(C(F)(F)F)cc1 [Example 311, (R)-1-(4-(Morpholin-2-yl)phenyl)-3-(4-(trifluoromethyl)phenyl)urea hydrochloride]	–	0.0005	–	0.0014
O=C(Nc1ccc([C@H]2CNCCO2)cc1)c1ccc(C(F)(F)F)nc1 [Example 284, (S)—N-(4-(Morpholin-2-yl)phenyl)-6-(trifluoromethyl)nicotinamide hydrochloride]	–	–	0.0128	0.005
O=C(Nc1ccc([C@@H]2CCCNC2)cc1)c1cc(Cl)nc(Cl)c1 [Example 281, (S)-2,6-Dichloro-N-(4-(piperidin-3-yl)phenyl)isonicotinamide hydrochloride]	0.0014	0.0128	–	–
O=C(Nc1ccc(C2CCCNC2)cc1)c1ccc(Cl)nc1 (racemic) [Example 74, (RS)-6-Chloro-N-(4-piperidin-3-yl-phenyl)-nicotinamide hydrochloride]	0.0672	0.0049	–	–
C[C@H]1CO[C@@H](c2ccc(NC(=O)c3cccc(Cl)c3)cc2)CN1 [Example 322, 3-Chloro-N-[4-((2S,5S)-5-methyl-morpholin-2-yl)-phenyl]-benzamide hydrochloride]	–	–	0.0188	0.0017
CCC(C(=O)Nc1ccc(C2CCNC2)cc1)c1ccccc1 (racemic) [Example 38, (RS)-2-Phenyl-N—((RS)-4-pyrrolidin-3-yl-phenyl)-butyramide]	0.0606	0.0407	–	–
O=C(Nc1ccc(CCC2CCNC2)cc1)c1ncc(F)cc1F (racemic) [Example 133, (RS)-3,5-Difluoro-pyridine-2-carboxylic acid [4-(2-pyrrolidin-3-yl-ethyl)-phenyl]-amide hydrochloride]	0.0174	1.52	–	–
Cc1ccc(C(=O)Nc2ccc([C@@H]3CCCNC3)cc2)cc1Cl [Example 225, (S)-3-Chloro-4-methyl-N-(4-(piperidin-3-yl)phenyl)benzamide hydrochloride]	0.0006	–	0.0189	–

More lines, main results first:

Ki (rat TAAR1; [1]) [µM]	Ki (mouse TAAR1; [2]) [µM]	Compound	Ki (mouse TAAR1) [µM]	Ki (rat TAAR1) [µM]
0.0004	0.0005	O=C(Nc1ccc(C2CCNC2)cc1)OCCc1cccc(Cl)c1 (racemic) [Example 121, (RS)-(4-Pyrrolidin-3-yl-phenyl)-carbamic acid 2-(3-chloro-phenyl)-ethyl ester]	–	–
0.0381	0.008	O=C(Nc1ccc(C2CCNC2)cc1)c1ccc2ccccc2n1 (racemic) [Example 84, (RS)-Quinoline-2-carboxylic acid (4-pyrrolidin-3-yl-phenyl)-amide hydrochloride]	–	–
0.0053	0.0016	CCCc1ccc(C(=O)Nc2ccc(C3CCNC3)cc2)cc1 (racemic) [Example 53, (RS)-4-Propyl-N-(4-pyrrolidin-3-yl-phenyl)-benzamide hydrochloride]	–	–
0.0016	0.0343	Cc1ccc(C(=O)Nc2ccc(C3CNCCO3)cc2)cc1 (racemic) [Example 189, (RS)-4-Methyl-N-(4-(morpholin-2-yl)phenyl)benzamide hydrochloride]	–	–
0.0238	0.0017	O=C(Nc1ccc(C2CCNC2)cc1)c1ccc(Cl)cc1F (racemic) [Example 77, (RS)-4-Chloro-2-fluoro-N-(4-pyrrolidin-3-yl-phenyl)-benzamide hydrochloride]	–	–
0.116	1.55	O=C(Nc1ccc(C2CNCCO2)cc1)c1ccc(N2CCOCC2)nc1 (racemic) [Example 241, (RS)—N-(4-(Morpholin-2-yl)phenyl)-6-morpholinonicotinamide hydrochloride]	–	–
0.0995	0.008	O=C(Nc1ccc(C2CCNC2)cc1)c1ccccc1 (racemic) [Example 13, (RS)—N-(4-Pyrrolidin-3-yl-phenyl)-benzamide hydrochloride]	–	–
0.116	0.0051	O=C(Nc1ccc(C2CCNC2)cc1)c1cc(Cl)ccn1 (racemic) [Example 86, (RS)-4-Chloro-pyridine-2-carboxylic acid (4-pyrrolidin-3-yl-phenyl)-amide hydrochloride]	–	–
0.0193	0.0038	CCOc1ccc(C(=O)Nc2ccc(C3CCCNC3)cc2)cc1 (racemic) [Example 97, (RS)-4-Ethoxy-N-(4-piperidin-3-yl-phenyl)-benzamide hydrochloride]	–	–
0.002	0.153	O=C(Nc1ccc(CCC2CCCN2)cc1)c1ccc(F)cc1 (racemic) [Example 156, (RS)-4-Fluoro-N-[4-(2-pyrrolidin-2-yl-ethyl)-phenyl]-benzamide hydrochloride]	–	–
0.0035	0.0034	O=C(Nc1ccc([C@@H]2CCNC2)cc1)c1ccc(OCC(F)(F)F)nc1 [Example 205, (S)—N-(4-(Pyrrolidin-3-yl)phenyl)-6-(2,2,2-trifluoroethoxy)nicotinamide hydrochloride]	–	–
0.0022	0.0008	CCOc1ccc(C(=O)Nc2ccc(C3CCCNC3)cc2)nc1 (racemic) [Example 179, (RS)-5-Ethoxy-pyridine-2-carboxylic acid (4-piperidin-3-yl-phenyl)-amide; hydrochloride]	–	–
0.645	0.137	N#Cc1cccc(CC(=O)Nc2ccc(C3CCNC3)cc2)c1 (racemic) [Example 66, (RS)-2-(3-Cyano-phenyl)-N-(4-pyrrolidin-3-yl-phenyl)-acetamide]	–	–
0.0014	0.0022	O=C(Nc1ccc(C2CNCCO2)cc1)c1ccn(-c2ccccc2)n1 (racemic) [Example 299, (RS)—N-(4-(Morpholin-2-yl)phenyl)-1-phenyl-1H-pyrazole-3-carboxamide hydrochloride]	–	–
0.296	2.5	O=C(O)c1ccc(COc2ccc(C(=O)Nc3ccc(C4CNCCO4)cc3)cc2)cc1 (racemic) [Example 212, (RS)-4-((4-(4-(morpholin-2-yl)phenylcarbamoyl)phenoxy)methyl)benzoic acid hydrochloride]	–	–
